Test results taken from patent US10960005B2, “Treatment of relapsed and/or refractory solid tumors and non-hodgkin's lymphomas” (CELGENE QUANTICEL RESEARCH, INC., priority 2016, dated 2021).

Columns and labels:
[1] = test system: LU1480 SCLC patient-derived xenograft; test: Efficacy in LU1480 HuPrime SCLC PDX model; format: in vivo, mice
[2] = Pharmacokinetics after single IV and oral dose, CD-1 mice; format: in vivo; conditions: Mouse, female
Protocol: (§1) AUClast=area under the plasma concentration-time curve from time zero to time of last measurable concentration; Cmax=maximum plasma concentration; F=oral bioavailability; hr=hour, PK=pharmacokinetic; SD=standard deviation; t1/2 z=apparent half-life of the terminal phase of the concentration-time curve; tmax=time of Cmax. In mouse, PK parameters were determined using composite plasma samples obtained from n=3animals/time point. In other species, PK parameters are from n=3 animals and values shown are mean and SD (in parentheses).

[3] = Pharmacokinetics after single IV and oral dose, Beagle dogs; format: in vivo; conditions: Dog, male
Protocol: as §1

[4] = Pharmacokinetics after single IV and oral dose, Cynomolgus monkeys; format: in vivo; conditions: Monkey, male
Protocol: as §1

[5] = test system: Salmonella typhimurium TA98 and TA100 strains; test: Bacterial reverse mutation assay; format: cell-based; conditions: up to 500 μg/mL; in presence and absence of S9

Compound: COc1ccc(-c2c(-c3ccc(C#N)c(F)c3)nc(N3CCC(N)CC3)n(C)c2=O)cc1F [Compound A]
- % TGI ([1]; 10 mg base/kg PO QD × 21): 72%
- TGI ([1]; 10 mg base/kg orally for 15 days (second LU1480 experiment)): 46%
- AUC∞ ([2]; single IV 5 mg base/kg): 2664 ng·h/mL
- CL ([2]; single IV 5 mg base/kg): 32 mL/min/kg
- Vss ([2]; single IV 5 mg base/kg): 7.51 L/kg
- t1/2,z ([2]; single IV 5 mg base/kg): 3.8 h
- % F ([2]; single oral 10 mg base/kg): 38%
- Cmax ([2]; single oral 10 mg base/kg): 510 ng/mL
- t1/2,z ([2]; single oral 10 mg base/kg): 1.7 h
- tmax ([2]; single oral 10 mg base/kg): 0.5 h
- AUC∞ ([3]; single IV 1 mg base/kg): 1944 ng·h/mL
- CL ([3]; single IV 1 mg base/kg): 9 mL/min/kg
- Vss ([3]; single IV 1 mg base/kg): 11.058 L/kg
- t1/2,z ([3]; single IV 1 mg base/kg): 15.5 h
- % F ([3]; single oral 1 mg base/kg): 84%
- AUClast ([3]; single oral 1 mg base/kg): 1089 ng·h/mL
- Cmax ([3]; single oral 1 mg base/kg): 69 ng/mL
- t1/2,z ([3]; single oral 1 mg base/kg): 15.0 h
- tmax ([3]; single oral 1 mg base/kg): 2.0 h
- % F ([3]; single oral 3 mg base/kg): 100%
- AUClast ([3]; single oral 3 mg base/kg): 3792 ng·h/mL
- Cmax ([3]; single oral 3 mg base/kg): 298 ng/mL
- t1/2,z ([3]; single oral 3 mg base/kg): 19.4 h
- tmax ([3]; single oral 3 mg base/kg): 1.0 h
- % F ([3]; single oral 6 mg base/kg): 100%
- AUClast ([3]; single oral 6 mg base/kg): 8792 ng·h/mL
- Cmax ([3]; single oral 6 mg base/kg): 627 ng/mL
- t1/2,z ([3]; single oral 6 mg base/kg): 17.8 h
- tmax ([3]; single oral 6 mg base/kg): 1.0 h
- AUC∞ ([4]; single IV 1 mg base/kg): 983 ng·h/mL
- CL ([4]; single IV 1 mg base/kg): 18 mL/min/kg
- Vss ([4]; single IV 1 mg base/kg): 17.119 L/kg
- t1/2,z ([4]; single IV 1 mg base/kg): 12.0 h
- % F ([4]; single oral 5 mg base/kg): 82%
- AUClast ([4]; single oral 5 mg base/kg): 3618 ng·h/mL
- Cmax ([4]; single oral 5 mg base/kg): 187 ng/mL
- t1/2,z ([4]; single oral 5 mg base/kg): 12.9 h
- tmax ([4]; single oral 5 mg base/kg): 6.0 h
- mutagenicity [5]: negative for mutagenicity
